Measured values taken from paper PMC6595003, “Insights into real-time chemical processes in a calcium sensor protein-directed dynamic library” (Nature Communications, 2019).
Several values for one entry are separate records, joined by “and”; a condition that tells them apart may be missing. Identical values can stand only once.

Columns and labels:
[1] = Parallel artificial membrane permeability assay (PAMPA-BBB); format: in vitro ADME; conditions: for Pe (10-6 cm s-1) Experimental 1 / Pe (10-6 cm s-1) Experimental 2 / Pe (10-6 cm s-1) Experimental 3: source data
Text: The PAMPA methodology is a high-throughput technique to predict passive permeability through biological membranes that employs a brain lipid porcine as membrane. […]
From this equation and following the pattern established in the literature for BBB permeation prediction2 we could classify compounds as CNS + when they present a permeability > 4.50 x 10-6 cm s-1. Source data are provided as a Source Data file. […]
Parallel artificial membrane permeability assays. Prediction of the brain penetration was evaluated using a parallel artificial membrane permeability assay (PAMPA).4 Ten commercial drugs, phosphate buffer saline solution at pH 7.4 (PBS). DMSO and dodecane were purchased from Sigma, Across organics, Aldrich and Fluka. The porcine […]
plate was a 96-well filtrate plate (Multiscreen® IP Sterile Plate PDVF membrane, pore […]
MAIPS4510) and the acceptor plate was an indented 96-well plate (Multiscreen®, catalog no. MAMCS9610) both from Millipore. Filter PDVF […]
membrane units (diameter 30 mm, pore size 0.45 µm) from Symta were used to filter the samples. A 96-well plate UV reader (Thermoscientific, Multiskan spectrum) was used for the UV measurements.

dNCS-1 = target: T1, dNCS-1 (Drosophila melanogaster, UniProt Q9VWX8); assay: Protein-directed DCL, HPLC-MS relative peak area with and without dNCS-1; conditions: for RPA, Blank DCL / RPA, Templated DCL: as fraction of total area; for RPA, Templated DCL: with dNCS-1; for RPA (%) with protein (templated DCL): relative peak area in presence of dNCS-1; for RPA (%) without protein (blank DCL): relative peak area, sum of all peak areas set to 100%; for RPA (%), Blank DCL: sheet Supplementary Figure 10; for RPA (%), Templated DCL: sheet Supplementary Figure 10, with dNCS-1
T1 construct: made in house; host or cells: E. coli
T1 sequence (Q9VWX8 1-187): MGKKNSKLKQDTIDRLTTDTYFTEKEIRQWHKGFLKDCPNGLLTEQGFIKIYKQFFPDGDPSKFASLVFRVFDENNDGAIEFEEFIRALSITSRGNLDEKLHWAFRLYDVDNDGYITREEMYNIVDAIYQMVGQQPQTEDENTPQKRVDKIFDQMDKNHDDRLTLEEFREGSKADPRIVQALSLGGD
Method: The reversibility of the DCL was evident, since an identical equilibrium distribution to that shown in Fig. 4a was obtained when two different starting points were employed. The observed degree of amplification was 3b > 3e ≥ 3d > 3a. The precise composition of the DCL (with and without dNCS-1), was assessed by measuring the relative peak area (RPA). Indeed, the normalized change of RPA was used to quantify the protein influence in the final outcome (Supplementary Figs. 9, 10 and Supplementary Tables 1, 2 and 3)[28]. […] Note that compounds 3a–3e can exist as E/Z isomers of the C = N bond. […].
Aldehyde 1 (1.2 μL, 50 mM, DMSO), the five acylhydrazides 2a–2e (5 × 3.6 μL, 50 mM, DMSO), p-anisidine (1 μL, 12 M, DMSO) and buffer 20 mM Tris, 0.5 M NaCl and 1 mM CaCl2, 1 mM DTT at pH 7.4 (750 μL) in 3.3 % DMSO. The mixture was stabilized in 5 h at 4 °C. HPLC analysis was performed.
Aldehyde 1 (1.2 μL, 50 mM, DMSO), the five acylhydrazides 2a–2e (5 × 3.6 μL, 50 mM, DMSO), p-anisidine (1 μL, 12 mM, DMSO) and dNCS-1 in buffer 20 mM Tris, 0.5 M NaCl and 1 mM CaCl2, 1 mM DTT at pH 7.4 (66.7 μM, 750 μL, 1 eq.). The experiment is in 3.3% DMSO. The mixture was stabilized for 5 h at 4 °C. Then, dNCS-1 was removed by ultrafiltration using an Amicon Ultra filter (0.5–10 KDa). HPLC analysis was performed and the traces were compared with the blank composition.
Supplementary Figure 9. Relative Peak Area of the DCL with and without dNCS1. Aldehyde
1 (1.2 µL, 50 mM), 2a-e (3.6 µL, 50 mM), catalyst (1 µL, 12 M), dNCS-1:1 [1:1], tris buffer (20
mM, pH 7.4), 1 mM CaCl2, 0.5 M NaCl, 1 mM DTT, T = 4 °C, 2% DM SO. Mean relative peak
area (RPA) of each acylhydrazone of the library in the absence (blank) and presence of dNCS-1.
Error bars indicate standard deviation (SD) over three experiments. The calculation is set by the
sum of all peak areas to 100% and assigning each peak its percentage. Source data are provided
R P A N o rm aliz ed V a riation
Supplementary Figure 10. RPA normalized of variation of DCL with and without dNCS1.
Aldehyde 1 (1.2 µL, 50 mM), 2a-e (3.6 µL, 50 mM), catalyst (1 µL, 12 M), dNCS-1:1 [1:1], tris
buffer (20 mM, pH 7.4), 1 mM CaCl2, 0.5 M NaCl, 1 mM DTT, T = 4 °C, 2% DM SO. Error
bars indicate SD over three experiments. Source data are provided as a Source Data file.

[2] = pig, PAMPA-BBB, pH 7.4, 5% DMSO, 2 h 30 min at 25 °C, mean ± SD, read-out: Pe, in vitro permeability
[3] = PAMPA-BBB, pH 7.4, 5% DMSO, 2 h 30 min at 25 °C, mean ± SD

## O=C(Cc1c[nH]c2ccccc12)NN=Cc1ccc([N+](=O)[O-])c(O)c1 (mixture of isomers) [3b]
[1]; [2]
  Papp at 2.5 h, 0.04 mg/mL: 12.9 ± 0.8 ×10⁻⁶ cm/s
[1]
  Pe (10-6 cm s-1) Experimental 1: 12.9 10-6 cm s-1
  Pe (10-6 cm s-1) Experimental 2: 12.33 10-6 cm s-1
  Pe (10-6 cm s-1) Experimental 3: 13.52 10-6 cm s-1
dNCS-1
  RPA, Blank DCL: 0.1921
  RPA, Templated DCL: 0.2944
  RPA (%) with protein (templated DCL): 29.4% and 29.4401%
  RPA (%) without protein (blank DCL): 19.2% and 19.208%
  RPA (%), Blank DCL: 19.2%
  RPA (%), Templated DCL: 29.4%

## O=C(NN=Cc1ccc([N+](=O)[O-])c(O)c1)C(O)c1ccccc1 (mixture of isomers) [3d]
[1]; [3]
  Pe, in vitro permeability: did not show good permeability values
[1]; [2]
  Papp at 2.5 h: 2.5 ± 0.6 ×10⁻⁶ cm/s
[1]
  Pe (10-6 cm s-1) Experimental 1: 2.5 10-6 cm s-1
  Pe (10-6 cm s-1) Experimental 2: 2.04 10-6 cm s-1
  Pe (10-6 cm s-1) Experimental 3: 2.94 10-6 cm s-1
dNCS-1
  RPA, Blank DCL: 0.1114
  RPA, Templated DCL: 0.0839
  RPA (%) with protein (templated DCL): 8.4% and 8.39%
  RPA (%) without protein (blank DCL): 11.1% and 11.1444%
  RPA (%), Blank DCL: 11.1%
  RPA (%), Templated DCL: 8.39%

## O=C(N/N=C/c1ccc([N+](=O)[O-])c(O)c1)c1ccco1 [3a]
[1]; [3]
  Pe, in vitro permeability: did not show good permeability values
[1]; Supplementary Table 5
  Prediction (penetration in the CNS): CNS -
[1]; [2]
  Papp at 2.5 h: 1.7 ± 0.7 ×10⁻⁶ cm/s
[1]
  Pe (10-6 cm s-1) Experimental 1: 1.7 10-6 cm s-1
  Pe (10-6 cm s-1) Experimental 2: 1.25 10-6 cm s-1
  Pe (10-6 cm s-1) Experimental 3: 2.25 10-6 cm s-1
dNCS-1
  RPA, Blank DCL: 0.2727
  RPA, Templated DCL: 0.1875
  RPA (%) with protein (templated DCL): 18.8% and 18.7508%
  RPA (%) without protein (blank DCL): 27.3% and 27.2702%
  RPA (%), Blank DCL: 27.3%
  RPA (%), Templated DCL: 18.8%
